Test results as given in patent US11370794B2, “Toll-like receptor antagonist compounds and methods of use” (Dynavax Technologies Corporation, priority 2016, dated 2022).
Where two headings read alike, the source gives them in different places.

Assays:
human TLR9 = target: T1, human TLR9 (Homo sapiens, UniProt Q9NR96); test: Inhibition of human TLR9 in human B cells (IL-6 ELISA); type: cell-based; settings: for IC50: human B cells, agonist 1018 ISS 1 μM; for inhibits TLR9-dependent responses (in words): summary statement of the description
T1 construct: endogenous in cells; host or cells: primary human B cells (CD19 microbeads) from buffy coats of healthy donors
T1 sequence (Q9NR96 26-1032): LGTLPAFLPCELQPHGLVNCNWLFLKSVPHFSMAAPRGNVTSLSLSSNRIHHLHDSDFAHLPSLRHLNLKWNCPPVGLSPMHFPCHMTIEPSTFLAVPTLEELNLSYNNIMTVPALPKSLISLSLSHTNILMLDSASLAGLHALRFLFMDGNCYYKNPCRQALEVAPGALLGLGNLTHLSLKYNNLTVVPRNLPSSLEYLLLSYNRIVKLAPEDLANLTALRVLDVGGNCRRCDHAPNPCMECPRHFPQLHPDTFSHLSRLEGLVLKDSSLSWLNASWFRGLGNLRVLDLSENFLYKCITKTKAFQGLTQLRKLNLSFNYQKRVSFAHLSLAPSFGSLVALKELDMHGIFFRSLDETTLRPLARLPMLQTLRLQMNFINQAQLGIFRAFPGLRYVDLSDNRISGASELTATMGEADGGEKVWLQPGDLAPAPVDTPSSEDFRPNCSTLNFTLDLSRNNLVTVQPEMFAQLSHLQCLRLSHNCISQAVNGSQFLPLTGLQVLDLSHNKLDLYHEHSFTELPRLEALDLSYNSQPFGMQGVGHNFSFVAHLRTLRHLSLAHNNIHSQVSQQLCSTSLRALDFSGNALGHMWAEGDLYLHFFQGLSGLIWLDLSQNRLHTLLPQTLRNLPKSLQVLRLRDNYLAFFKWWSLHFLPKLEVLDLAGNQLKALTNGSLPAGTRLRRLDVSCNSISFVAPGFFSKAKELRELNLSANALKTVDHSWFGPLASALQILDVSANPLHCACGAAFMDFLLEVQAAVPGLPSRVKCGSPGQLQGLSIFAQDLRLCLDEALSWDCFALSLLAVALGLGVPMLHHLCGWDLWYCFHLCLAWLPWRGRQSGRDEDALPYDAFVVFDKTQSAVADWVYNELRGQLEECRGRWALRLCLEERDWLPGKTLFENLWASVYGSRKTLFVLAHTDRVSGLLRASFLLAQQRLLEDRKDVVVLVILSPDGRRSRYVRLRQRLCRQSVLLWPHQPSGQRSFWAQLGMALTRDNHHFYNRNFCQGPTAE
Summary of the method: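 Primary human B cells (CD19-isolated from donor buffy coats), ~300,000 per well, treated with compound (about 0.01–10 μM, some 0.001–30 μM) then 1 μM CpG oligonucleotide 1018 ISS. After 48 hours at 37° C, supernatant IL-6 measured by ELISA; IC50 from concentration-response of TLR9-dependent activity.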

human TLR8 = target: T2, human TLR8 (Homo sapiens, UniProt Q9NR97); test: Inhibition of human TLR8 in human monocytes (TNF-alpha / IL-1 beta ELISA); type: cell-based; settings: for IC50: human monocytes, agonist ORN8L 100 μg/mL, TNF-alpha readout, 24 hours, read-out: Human TLR8 IC50 TNF-a
T2 construct: endogenous in cells; host or cells: primary human monocytes (CD14 microbeads) from buffy coats of healthy donors
T2 sequence (Q9NR97 27-1041): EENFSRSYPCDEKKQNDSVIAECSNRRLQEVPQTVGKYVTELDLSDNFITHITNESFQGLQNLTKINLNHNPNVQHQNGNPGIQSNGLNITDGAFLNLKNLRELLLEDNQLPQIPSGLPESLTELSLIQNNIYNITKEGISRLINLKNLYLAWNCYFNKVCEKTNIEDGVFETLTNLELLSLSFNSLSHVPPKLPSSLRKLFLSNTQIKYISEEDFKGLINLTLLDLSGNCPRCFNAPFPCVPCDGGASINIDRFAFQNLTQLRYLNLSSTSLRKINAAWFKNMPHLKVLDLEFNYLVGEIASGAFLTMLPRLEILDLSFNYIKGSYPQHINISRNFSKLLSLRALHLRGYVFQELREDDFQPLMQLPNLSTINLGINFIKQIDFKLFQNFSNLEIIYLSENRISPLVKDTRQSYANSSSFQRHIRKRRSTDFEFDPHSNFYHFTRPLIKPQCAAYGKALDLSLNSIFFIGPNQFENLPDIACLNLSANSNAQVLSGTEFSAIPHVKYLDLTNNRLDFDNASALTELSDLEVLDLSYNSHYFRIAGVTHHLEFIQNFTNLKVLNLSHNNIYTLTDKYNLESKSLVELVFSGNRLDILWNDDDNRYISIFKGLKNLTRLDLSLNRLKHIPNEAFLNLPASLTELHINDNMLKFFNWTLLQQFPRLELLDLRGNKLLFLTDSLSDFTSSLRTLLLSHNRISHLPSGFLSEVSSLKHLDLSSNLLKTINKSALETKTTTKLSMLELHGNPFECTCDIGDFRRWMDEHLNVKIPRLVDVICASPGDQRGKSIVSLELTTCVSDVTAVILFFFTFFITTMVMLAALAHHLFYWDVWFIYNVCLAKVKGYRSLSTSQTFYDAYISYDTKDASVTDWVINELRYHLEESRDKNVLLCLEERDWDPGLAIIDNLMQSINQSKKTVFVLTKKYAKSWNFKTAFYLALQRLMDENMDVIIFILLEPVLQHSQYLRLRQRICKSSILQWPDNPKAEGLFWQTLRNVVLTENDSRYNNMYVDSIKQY
Summary of the method: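 Primary human monocytes from donor buffy coats (~200,000 cells/well) given serially diluted compound, then ORN8L RNA oligonucleotide agonist at 100 μg/mL final. After 24 h at 37 °C, supernatant TNF-alpha and/or IL-1 beta measured by ELISA; IC50 from the concentration-response of cytokine release.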

[1] = IL-6, 48 hours, expanded dilution series about 0.001 to 30 μM, read-out: Human TLR9 IC50, expanded dilution series
[2] = IL-6 readout, 48 hours, range about 0.01 to 10 μM, read-out: Human TLR9 IC50

| SMILES | IC50 (human TLR9; [1]) | IC50 (human TLR9; [2]) | inhibits TLR9-dependent responses (in words) (human TLR9) | IC50 (human TLR8) | inhibits TLR8-dependent responses (in words) (human TLR8; summary statement of the description) |
| --- | --- | --- | --- | --- | --- |
| Cc1ccc(-n2nc3c(Cl)nnc(N4CCC(C(=O)NCCCN(C)C)CC4)c3c2C)cc1 [compound 48, 1-(7-chloro-3-methyl-2-(p-tolyl)-2H-pyrazolo[3,4-d]pyridazin-4-yl)-N-(3-(dimethylamino)propyl)piperidine-4-carboxamide] | – | 10800 nM | – | ≥ 20000 nM | – |
| CNC(=O)C1CCN(c2nnc(C)c3c(C)n(-c4ccc(C)cc4)nc23)C1 (stereo not drawn) [compound 57, 1-(3,4-dimethyl-2-(p-tolyl)-2H-pyrazolo[3,4-d]pyridazin-7-yl)-N-methylpyrrolidine-3-carboxamide] | – | 9370 nM | – | ≥ 20000 nM | – |
| Cc1ccc(-n2nc3c(N4CCCC(C(=O)NCCNc5ccccc5)C4)nnc(C)c3c2C)cc1 (stereo not drawn) [compound 58, 1-(3,4-dimethyl-2-(p-tolyl)-2H-pyrazolo[3,4-d]pyridazin-7-yl)-N-(2-(phenylamino)ethyl)piperidine-3-carboxamide] | – | 4820 nM | – | ≥ 20000 nM | – |
| Cc1ccc(-n2nc3c(N4CCC(C(=O)NCCN(C)C)CC4)nnc(C)c3c2C(F)(F)F)cc1 [compound 63, N-(2-(dimethylamino)ethyl)-1-(4-methyl-2-(p-tolyl)-3-(trifluoromethyl)-2H-pyrazolo[3,4-d]pyridazin-7-yl)piperidine-4-carboxamide] | – | 5580 nM | – | ≥ 20000 nM | – |
| Cc1ccc(-n2cc3cnnc(N4CCC(C(=O)NCCN5CCOCC5)CC4)c3n2)cc1 [compound 64, N-(2-morpholinoethyl)-1-(2-(p-tolyl)-2H-pyrazolo[3,4-d]pyridazin-7-yl)piperidine-4-carboxamide] | – | 557 nM | – | ≥ 20000 nM | – |
| Cc1ccc(-n2nc3c(N4CCC(CCC(=O)NC5CN(C)C5)CC4)nnc(C)c3c2C)cc1 [compound 66, 3-(1-(3,4-dimethyl-2-(p-tolyl)-2H-pyrazolo[3,4-d]pyridazin-7-yl)piperidin-4-yl)-N-(1-methylazetidin-3-yl)propanamide] | – | 182 nM | – | ≥ 20000 nM | – |
| Cc1ccc(-n2nc3c(N4CCC(C(=O)N5CCC(CN(C)Cc6ccccc6)C5)CC4)nnc(C)c3c2C)cc1 (stereo not drawn) [compound 68, (3-((benzyl(methyl)amino)methyl)pyrrolidin-1-yl)(1-(3,4-dimethyl-2-(p-tolyl)-2H-pyrazolo[3,4-d]pyridazin-7-yl)piperidin-4-yl)methanone] | – | 85 nM | – | 1180 nM | – |
| Cc1ccc(-n2nc3c(N4CCC(C(=O)N5CCC(N6CCOCC6)CC5)CC4)nnc(C)c3c2C)cc1 [compound 69, (1-(3,4-dimethyl-2-(p-tolyl)-2H-pyrazolo[3,4-d]pyridazin-7-yl)piperidin-4-yl)(4-morpholinopiperidin-1-yl)methanone] | – | 253 nM | – | 3840 nM | – |
| Cc1ccc(-n2nc3c(N4CCC(C(=O)N5CCC(CN6CCOCC6)C5)CC4)nnc(C)c3c2C)cc1 (stereo not drawn) [compound 70, (1-(3,4-dimethyl-2-(p-tolyl)-2H-pyrazolo[3,4-d]pyridazin-7-yl)piperidin-4-yl)(3-(morpholinomethyl)pyrrolidin-1 yl)methanone] | – | 150 nM | – | 5120 nM | – |

Molecules with a lower IC50 (human TLR9; [2]), results first:

| IC50 (human TLR9; [1]) | IC50 (human TLR9; [2]) | inhibits TLR9-dependent responses (in words) (human TLR9) | IC50 (human TLR8) | inhibits TLR8-dependent responses (in words) (human TLR8; summary statement of the description) | SMILES |
| --- | --- | --- | --- | --- | --- |
| – | 49 nM | inhibit | 480 nM | inhibit | Cc1ccc(-n2nc3c(N4CCC(C(=O)N5CCC(N(C)Cc6ccccc6)CC5)CC4)nnc(C)c3c2C)cc1 [compound 67, (4-(benzyl(methyl)amino)piperidin-1-yl)(1-(3,4-dimethyl-2-(p-tolyl)-2H-pyrazolo[3,4-d]pyridazin-7-yl)piperidin-4-yl)methanone] |
| – | 27 nM | – | 2620 nM | – | Cc1ccc(-n2cc3cnnc(N4CCCC(C(=O)NCCN(C)C)C4)c3n2)cc1 (stereo not drawn) [compound 47, N-(2-(dimethylamino)ethyl)-1-(2-(p-tolyl)-2H-pyrazolo[3,4-d]pyridazin-7-yl)piperidine-3-carboxamide] |
| – | 21 nM | – | 3840 nM | – | Cc1ccc(-n2cc3cnnc(N4CCC(C(=O)NC5CN(C)C5)CC4)c3n2)cc1 [compound 62, N-(1-methylazetidin-3-yl)-1-(2-(p-tolyl)-2H-pyrazolo[3,4-d]pyridazin-7-yl)piperidine-4-carboxamide] |
| – | 10 nM | – | 1850 nM | – | Cc1ccc(-n2nc3c(N4CCC(C(=O)N5CCC(N6CCC6)CC5)CC4)nnc(C)c3c2C)cc1 [compound 65, (4-(azetidin-1-yl)piperidin-1-yl)(1-(3,4-dimethyl-2-(p-tolyl)-2H-pyrazolo[3,4-d]pyridazin-7-yl)piperidin-4-yl)methanone] |
| – | 9 nM | – | 4850 nM | – | Cc1ccc(-n2cc3cnnc(N4CCC(CCC(=O)NCCN(C)C)CC4)c3n2)cc1 [compound 61, N-(2-(dimethylamino)ethyl)-3-(1-(2-(p-tolyl)-2H-pyrazolo[3,4-d]pyridazin-7-yl)piperidin-4-yl)propanamide] |
| – | 6 nM | – | 770 nM | – | CCN(CC)C1CCN(C(=O)C2CCN(c3nncc4cn(-c5ccc(C)cc5)nc34)CC2)CC1 [compound 59, (4-(diethylamino)piperidin-1-yl)(1-(2-(p-tolyl)-2H-pyrazolo[3,4-d]pyridazin-7-yl)piperidin-4-yl)methanone] |
| 10 nM | 2 nM | inhibit | ≥ 20000 nM | – | Cc1ccc(-n2cc3cnnc(N4CCC(C(=O)NCCN(C)C)CC4)c3n2)cc1 [compound 46, N-(2-(dimethylamino)ethyl)-1-(2-(p-tolyl)-2H-pyrazolo[3,4-d]pyridazin-7-yl)piperidine-4-carboxamide] |
| – | 2 nM | – | 980 nM | – | Cc1ccc(-n2cc3cnnc(N4CCC(C(=O)N5CCC(CN(C)C)C5)CC4)c3n2)cc1 (stereo not drawn) [compound 60, (3-((dimethylamino)methyl)pyrrolidin-1-yl)(1-(2-(p-tolyl)-2H-pyrazol[3,4-d]pyridazin-7-yl)piperidin-4-yl)methanone] |
| 14 nM | 1 nM | inhibit | ≥ 20000 nM | – | Cc1ccc(-n2nc3c(N4CCC(C(=O)N5CCC(CN(C)C)C5)CC4)nnc(C)c3c2C)cc1 (stereo not drawn) [compound 45, (1-(3,4-dimethyl-2-(p-tolyl)-2H-pyrazolo[3,4-d]pyridazin-7-yl)piperidin-4-yl)(3-((dimethylamino)methyl)pyrrolidin-1-yl)methanone] |
